Legend:
CatK = target: T1, CatK (Homo sapiens, UniProt P43235); experiment: CatK activity (probe BMV109) and CatK expression (Western blot) in OC lysates; type: cell-based; parameters: endogenous in cells; host or cells: human osteoclasts differentiated from CD14+ monocytes on cortical bone slices; conditions: for mature CatK in OCs (Western blotting): OCs treated with inhibitor
T1 sequence (P43235 115-329): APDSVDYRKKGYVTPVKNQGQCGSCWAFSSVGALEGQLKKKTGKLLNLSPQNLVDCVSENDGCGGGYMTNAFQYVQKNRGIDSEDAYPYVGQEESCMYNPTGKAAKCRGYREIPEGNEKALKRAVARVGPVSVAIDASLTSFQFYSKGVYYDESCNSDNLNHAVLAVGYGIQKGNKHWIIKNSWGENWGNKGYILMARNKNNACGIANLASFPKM
Method: The inhibitory properties on CatK of inhibitors of this invention were tested in a biologically relevant setting: inhibition of bone resorption by osteoclasts (OCs). OCs are the cells that degrade the bone matrix by secretion of acid and CatK into the resorption lacunae, resulting in the cleavage of collagen type I. Inhibition of osteoclastic CatK was studied by culturing OCs on cortical bone slices in presence of inhibitors of this invention (FIG. 5). […] OCs predominantly form deep trenches (paths) while OCs lacking CatK form small pits (circular dots). B) CD14+ monocytes on bone slices were treated with MCSF (day 0) and RANKL (day 3) to stimulate differentiation to mature OCs. Medium containing either an inhibitor or DMSO was refreshed on day 7, 10, 13 and 16. At day 21, OCs were washed away and lysed, and bone slices were stained to visualize bone resorption. C) Bone resorption visualized by staining of resorption pits with Coomassie Brilliant Blue. More staining means more resorption pits, thus more bone resorption activity. Normal D) Schematic overview of pro-Cathepsin K activation. E) CatK activity and expression in OC lysates. […] Darker bands indicate more activity/expression of CatK.
OC lysates were treated with activity-based irreversible Cathepsin probe BMV109 to assess whether the observed inhibition of bone resorption could be correlated with CatK activity (FIG. 5E).

hCatB = hCatB (Homo sapiens, UniProt P07858); experiment: In vitro inhibition of purified human Cathepsin B (Z-RR-AMC); type: biochemical; conditions: 30 min incubation with inhibitor, mean ± SD, triplicate
Method: (§1) Cathepsin (e.g. Cathepsin K/L/V/S/B), in particular purified human Cathepsin, was diluted in freshly prepared reaction buffer consisting of 50 mM MES pH 5.5, 25 mM EDTA and 2.5 mM DTT. 0.05% Tween20 (v/v) may be added to the reaction buffer of the Cathepsin K.
Activity assays may be conducted in a suitable manner. […] Plates were shaken at 600 rpm for 1 minute and centrifuged at 1000 rpm for 1 minute prior to incubation. Cathepsin activity was quantified using synthetic fluorogenic peptide substrate Z-FR-AMC (Cath K, L, V), Z-RR-AMC (Cath B) or Z-FVR-AMC (Cath S). Fluorescence intensity (λex=350 nm, λem=440 nm) was measured every 2 minutes in arbitrary units (A.U.) on a CLARIOstar (BMG Labtech) microplate reader and values were converted to product formation [AMC]. […] Measurements were performed in triplicate.
(§2) Inhibitors (200 nL, 100× final concentration in DMSO) were diluted in reaction buffer (10 μL). Purified human Cathepsin (5 μL, 4× final concentration) was added and the reaction mixture was incubated for 30 min at room temperature. Fluorogenic substrate (5 μL, 4× final concentration) was added and fluorescence intensity was measured every 2 minutes for 30-90 minutes.
(§3) The potency of the compounds as CatK inhibitors was assessed in an in vitro inhibition assay on purified human CatK (Table 2). Cathepsin was incubated with inhibitor, and the hydrolysis of substrate was initiated by addition of substrate.

hCatK = target: T2, hCatK (Homo sapiens, UniProt P43235); experiment: Jump dilution assay for reversibility of hCatK inhibition; type: biochemical; conditions: 300× dilution into fluorogenic substrate solution
T2 sequence (P43235 115-329): T1 sequence (P43235 115-329)
Method: FIG. 3 provides a schematic overview of a jump dilution assay. A) Dose response curve for a 300-fold dilution of inhibitor concentration from full inhibition to full activity. B) Protocol and concentrations for incubation and dilution. C) Progress curves for hCatK proteolytic activity with inhibitor compounds ODN, 4, 5, 6 after dilution.
Reversibility of protease inhibition by an inhibitor may be assessed in a jump dilution assay. An exemplary jump dilution assay is provided in R. A. Copeland, A. Basavapathruni, M. Moyer, M. P. Scott, Anal. Biochem. 2011, 416, 206. In a jump dilution assay the protease (e.g. CatK) is incubated with inhibitor at high concentration to allow full active site occupation, and subsequently diluted, e.g. 300×, into fluorogenic substrate solution resulting in an inhibitor concentration corresponding with full protease activity. The hydrolysis of fluorogenic substrate is monitored over an extended time period, e.g. at least 60 minutes. […] The assay results may be compared with the results using a known irreversible inhibitor of the protease as a control. E-64 represents an established pan-Cathepsin irreversible inhibitor, suitable for use as a positive control with most cysteine protease Cathepsins.
Reversibility of hCatK inhibition was assessed in a jump dilution assay. Established pan-Cathepsin inhibitor E-64 was taken along as a control for irreversible inhibition. Purified hCatK was incubated with inhibitors at high concentration to allow full active site occupation, and subsequently diluted 300× into fluorogenic substrate solution resulting in an inhibitor concentration corresponding with full activity (FIG. 3).

hCatS = hCatS (Homo sapiens, UniProt P25774); experiment: In vitro inhibition of purified human Cathepsin S (Z-FVR-AMC); type: biochemical; conditions: 30 min incubation with inhibitor, mean ± SD, triplicate
Method: as §1
Activity assays may be conducted in a suitable manner. In the experiments described herein, the assays were typically conducted in Corning 3820 Low Volume 384 Well Assay Plate with a final assay volume of 20 μL. Plates were shaken at 600 rpm for 1 minute and centrifuged at 1000 rpm for 1 minute prior to incubation. Cathepsin activity was quantified using synthetic fluorogenic peptide substrate Z-FR-AMC (Cath K, L, V), Z-RR-AMC (Cath B) or Z-FVR-AMC (Cath S). Fluorescence intensity (λex=350 nm, λem=440 nm) was measured every 2 minutes in arbitrary units (A.U.) on a CLARIOstar (BMG Labtech) microplate reader and values were converted to product formation [AMC]. […] Measurements were performed in triplicate.
as §2, §3

[1] = samples treated with high concentrations

Chain of hCatS (P25774 115-331): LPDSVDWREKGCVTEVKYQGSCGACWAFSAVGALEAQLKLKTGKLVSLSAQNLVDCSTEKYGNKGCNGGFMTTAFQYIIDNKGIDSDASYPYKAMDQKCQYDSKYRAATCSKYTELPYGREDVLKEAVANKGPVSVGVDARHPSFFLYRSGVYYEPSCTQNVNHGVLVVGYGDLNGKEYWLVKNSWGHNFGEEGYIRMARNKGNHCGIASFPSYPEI

| CatK activity in OC lysates (probe BMV109) (CatK; all samples treated) | IC50 (hCatB) | reversibility of hCatK inhibition (hCatK) | IC50 (hCatS) | mature CatK in OCs (Western blotting) (CatK) | CatK activity in OC lysates (probe BMV109) (CatK; [1]) | Compound |
| --- | --- | --- | --- | --- | --- | --- |
| strong increase of mature CatK activity | 0.0626 ± 0.0025 µM | (fast) reversible inhibitor | 0.0243 ± 0.000569 µM | – | – | CC(C)(F)C[C@H](N[C@@H](c1ccc(-c2ccc(S(C)(=O)=O)cc2)cc1)C(F)(F)F)C(=O)NC1(C#N)CC1 [ODN, (S)—N-(1-cyanocyclopropyl)-4-fluoro-4-methyl-2-(((S)-2,2,2-trifluoro-1-(4′-(methylsulfonyl)-[1,1′-biphenyl]-4-yl)ethyl)amino)pentanamide, reference compound] |
| – | 9.39 ± 0.628 µM | irreversible | 10.7 ± 0.842 µM | mature CatK is present | full inhibition of CatK activity | C#CCNC(=O)[C@H](CC(C)(C)F)N[C@@H](c1ccc(-c2ccc(S(C)(=O)=O)cc2)cc1)C(F)(F)F [Compound 4, (S)-4-fluoro-4-methyl-N-(prop-2-yn-1-yl)-2-(((S)-2,2,2-trifluoro-1-(4′-(methylsulfonyl)-[1,1′-biphenyl]-4-yl)ethyl)amino)pentanamide] |
| – | 39.7 ± 4.34 µM | irreversible | 15.9 ± 1.84 µM | mature CatK is present | full inhibition of CatK activity | C#CC(C)NC(=O)[C@H](CC(C)(C)F)N[C@@H](c1ccc(-c2ccc(S(C)(=O)=O)cc2)cc1)C(F)(F)F (mixture of isomers) [Compound 5, (S)—N—((R/S)-but-3-yn-2-yl)-4-fluoro-4-methyl-2-(((S)-2,2,2-trifluoro-1-(4′-(methylsulfonyl)-[1,1′-biphenyl]-4-yl)ethyl)amino)pentanamide] |
